Assays:
Venturia inaequalis [1] = assay: Sulphur + Difenoconazole on apple fruits incidence for Venturia inaequalis control; format: in vivo; conditions: 4 days after last application
Experimental: (§1) Colby's method is used to determine if synergy exists for a combination of active ingredients. According to Colby, the expected action (E) of active ingredients A+B is: [formula] • where E=expected efficacy, A and B=the efficacy of two active ingredients A and B at a given dose. When the percentage of control observed (O) for the combination is greater than the expected (E) percentage, there is a synergistic effect. The synergism ratio (R) is calculated as the ratio between the expected values and observed values. […] The compositions were diluted with water. Each formulation with active ingredient is diluted with water and biological efficacy trials on target fungi are conducted.

Botrytis cinerea = assay: Activity against Botrytis cinerea in plates; format: cell-based
Experimental: as §1

[2] = system: Colletotrichum gloeosporioides; assay: Activity against Colletotrichum gloeosporioides in plates; format: cell-based
Experimental: as §1

Ramularia collo-cygni = assay: Activity against Ramularia collo-cygni in plates; format: cell-based
Experimental: as §1

Venturia inaequalis [3] = assay: Apple fruits classes of damage for Venturia inaequalis control; format: in vivo; conditions: 14 days after last application; for Class 1 (%): class 1 = no damage; for Class 2 (%): class 2 = 2-3 spots per fruit; for Class 3 (%): class 3 = more than 3 spots per fruit
Experimental: The fungicidal compounds A (sulphur) and B (mix partner) are formulated as equivalent compositions to eliminate the effects of differing formulation inerts on biological activity. Efficacy of the fungicidal compositions is evaluated with reference to a scale of 0% to 100% in comparison with untreated control plots. 0 means no control and 100 means complete control of the target disease.
(§2) The experiments were conducted by applying commercially available formulations of Sulphur and other mixture partners, alone or with their tank-mixed compositions. The compositions were diluted with water.
(§3) Each formulation with active ingredient is diluted with water and biological efficacy trials on target fungi are conducted.

Alternaria solani = assay: Activity against Alternaria solani in plates; format: cell-based
Experimental: as §1

Zymoseptoria tritici = assay: Wheat yield increase when applied for Zymoseptoria tritici control; format: in vivo
Experimental: as §2, §3

Tetranychus urticae = assay: Activity of Sulphur + Fluazinam against Tetranychus urticae in plates; format: in vivo
Experimental: (§4) Colby's method is used to determine if synergy exists for a combination of active ingredients. According to Colby, the expected action (E) of active ingredients A+B is:
(§5) [formula] • where E=expected efficacy, A and B=the efficacy of two active ingredients A and B at a given dose.
(§6) When the percentage of control observed (O) for the combination is greater than the expected (E) percentage, there is a synergistic effect. The synergism ratio (R) is calculated as the ratio between the expected values and observed values.
(§7) Furthermore, the miticidal and insecticidal efficacy of the compositions are also evaluated with reference to a scale of 0% to 100% in comparison with untreated control plots. 0 means no control and 100 means complete control of the target pest.
as §2
(§8) Each formulation with active ingredient is diluted with water and biological efficacy trials on target pest are conducted.

[4] = system: Trialeurodes vaporariorum; assay: Activity of Sulphur + Fluazinam against Trialeurodes vaporariorum plates; format: in vivo
Experimental: as §4, §5, §6, §7, §2, §8

CC1COC(Cn2cncn2)(c2ccc(Oc3ccc(Cl)cc3)cc2Cl)O1 (centres unmarked) [Difenoconazole]
Observed % control (O) (Venturia inaequalis [1]; rate 37.5 g/ha): 67.90%
Observed % control (O) (Venturia inaequalis [1]; rate 50 g/ha): 69.40%
Observed % control (O) (Botrytis cinerea; rate 25 g/ha): 62.5%
Observed % control (O) ([2]; rate 25 g/ha): 58.4%
Observed % control (O) (Ramularia collo-cygni; rate 25 g/ha): 73.9%
Class 1 (%) (Venturia inaequalis [3]; rate 37.5 g/ha): 92.5%
Class 1 (%) (Venturia inaequalis [3]; rate 50 g/ha): 93.5%
Class 2 (%) (Venturia inaequalis [3]; rate 37.5 g/ha): 5.2%
Class 2 (%) (Venturia inaequalis [3]; rate 50 g/ha): 3.3%
Class 3 (%) (Venturia inaequalis [3]; rate 37.5 g/ha): 2.3%
Class 3 (%) (Venturia inaequalis [3]; rate 50 g/ha): 3.3%
Observed % control (O) (Alternaria solani; rate 25 g/ha): 60.6%
Yield increase versus the untreated (%) (Zymoseptoria tritici; untreated = 100, rate 75 g/ha): 102.26%
Yield increase versus the untreated (%) (Zymoseptoria tritici; untreated = 100, rate 125 g/ha): 109.14%

Fluazinam
Observed % control (O) (Tetranychus urticae; 200 g ai/ha): 27.5%
Observed % control (O) (Tetranychus urticae; 250 g ai/ha): 32.5%
Observed % control (O) (Tetranychus urticae; 300 g ai/ha): 32.5%
Observed % control (O) (Tetranychus urticae; 350 g ai/ha): 37.5%
Observed % control (O) (Botrytis cinerea; rate 150 g/ha): 64.4%
Observed % control (O) ([2]; rate 150 g/ha): 60.8%
Observed % control (O) (Ramularia collo-cygni; rate 150 g/ha): 36.3%
Observed % control (O) ([4]; 200 g ai/ha): 21.7%
Observed % control (O) ([4]; 250 g ai/ha): 23.6%
Observed % control (O) ([4]; 300 g ai/ha): 24.1%
Observed % control (O) ([4]; 350 g ai/ha): 33.6%
Observed % control (O) (Alternaria solani; rate 150 g/ha): 57.5%
